In ChEMBL document CHEMBL3507680, “University of Dundee, Gates Library screen for HepG2 cell viability”:

Assay: Human HepG2 cell viability assay in 384 well format
Format: toxicity, cell-based
Design: dose 125 nL, time 70.5 hour; cytotoxicity at 70.5 h: concentration not given beside the values
Conditions: HepG2 cells, read-out: Inhibition
`CCc1ccc(CN(C)Cc2nc(COc3ccccc3)no2)nc1` gave a cytotoxicity at 70.5 h of -7.21%.
In the case of `O=C(NCCn1cccn1)C1CCC(=O)N(CC2CCCCC2)C1` (centres undefined), the cytotoxicity at 70.5 h is reported as 18%.
Work on `CCn1cc(CN2CCN(Cc3cccc(OC)c3)C(=O)C2)cc1C#N` yielded a cytotoxicity at 70.5 h of -1.17%.
Work on `Cc1cc(CN2C[C@H]3CC[C@@H]2CN(Cc2[nH]cnc2C)C3)on1` yielded a cytotoxicity at 70.5 h of -6.39%.
With `Cc1noc(C)c1-c1n[nH]c2c1CN(S(=O)(=O)c1cccnc1)CC2` the cytotoxicity at 70.5 h was -6.84%.
`OC1CCN([C@@H]2CCN(c3nc(-c4ccccc4)no3)C[C@H]2O)CC1` gave a cytotoxicity at 70.5 h of -1.33%.
For `CNc1cc(C)nc(N2C[C@H](NC(=O)C3CCOCC3)[C@@H](C3CC3)C2)n1`, the cytotoxicity at 70.5 h was 1.67%.
`Cc1cccc(CN2C[C@@H](CN3CCCN(C)CC3)[C@@H](CO)C2)n1` gave a cytotoxicity at 70.5 h of 26.4%.
`Cc1ccsc1-c1cccc(-c2ccn(CC3CCNC3)n2)c1` (centres undefined) gave a cytotoxicity at 70.5 h of 21.5%.
Compound `Cc1cccnc1CNCC1(O)CCCN(CC(C)(C)C)C1=O` (centres undefined) has a cytotoxicity at 70.5 h of -4.51%.
Compound `COc1ccc(OC)c(-n2cnnc2CCN)c1` has a cytotoxicity at 70.5 h of -4.57%.
`CNC(=O)[C@@H]1C[C@H](N)CN1S(=O)(=O)c1cc(Cl)c(Cl)s1` showed a cytotoxicity at 70.5 h of -2.73%.
Work on `COc1ccc(CN(C)C(=O)c2nnc(CN(C)C)o2)cc1` yielded a cytotoxicity at 70.5 h of -3.32%.
In the case of `Cc1nn(C)cc1CN1C[C@@H]2CC[C@H](C1)N(Cc1c(C)noc1C)C2=O`, the cytotoxicity at 70.5 h is reported as 32.1%.
For `Cc1noc(C)c1CCN1CCCC1c1nc2cc(F)ccc2[nH]1` (centres undefined), the cytotoxicity at 70.5 h was -5.52%.
`Cc1ccccc1-n1cc(CN(C)C[C@@H]2CCCN3CCCC[C@H]23)cn1` showed a cytotoxicity at 70.5 h of -12.2%.
In the case of `CCn1cc(C(=O)NCc2cccnc2N(C)Cc2ccccc2)cn1`, the cytotoxicity at 70.5 h is reported as 2.58%.
With `COCCC(=O)N1CCCC(CCC(=O)NCc2cccc(OC)c2)C1` (centres undefined) the cytotoxicity at 70.5 h was 20.8%.
With `CN(Cc1cc(-c2cccnc2)no1)C(=O)c1cccn1C` the cytotoxicity at 70.5 h was 0.783%.
`CC(C(=O)O)N1CC2(CCC1=O)CCN(C/C=C/c1ccccc1)CC2` (centres undefined) showed a cytotoxicity at 70.5 h of -7.03%.
For `COCc1ncc(-c2nccn2CCN(C)C)cn1`, the cytotoxicity at 70.5 h was -2.63%.
For `O=S(=O)(N1CCOCC1)N1CCOC(CCCc2ccccc2)C1` (centres undefined), the cytotoxicity at 70.5 h was -11.2%.
In the case of `COc1cc(C2CC(=O)Nc3c2nc2n3CCCC2)cc2c1OCO2` (centres undefined), the cytotoxicity at 70.5 h is reported as -12%.
Compound `O=C(NCC1CCCO1)c1ccc(S(=O)(=O)NCCc2cn[nH]c2)cc1` (centres undefined) has a cytotoxicity at 70.5 h of -4.87%.
Compound `Cc1nn(C)cc1C(=O)N1CCCC(c2nccn2CC2CCC2)C1` (centres undefined) has a cytotoxicity at 70.5 h of -28.4%.
Work on `O=C1NCC2(CCN(C(=O)c3ccc4c(c3)CCCO4)CC2)O1` yielded a cytotoxicity at 70.5 h of -1.35%.
Work on `CC(C)Oc1cc(N2C[C@H](C3CC3)[C@@H](N)C2)nc(N)n1` yielded a cytotoxicity at 70.5 h of -25.3%.
`c1cc(CN2CCC(c3ccncc3)CC2)cc(Cn2cccn2)c1` showed a cytotoxicity at 70.5 h of -1.99%.
`CC(CN1CCC2(CC1)N=C(N(C)C)NC2=O)c1ccccc1` (centres undefined) showed a cytotoxicity at 70.5 h of -12.1%.
For `Cc1ccc(C)c2c(O)cc(CN3CCC(c4nncn4C)CC3)nc12`, the cytotoxicity at 70.5 h was 0.0856%.
For `O=C(c1cc(COc2ccc3c(c2)OCO3)[nH]n1)N1CCCC(O)C1` (centres undefined), the cytotoxicity at 70.5 h was 0.249%.
Compound `Cc1ncsc1CCN(C)C(=O)CN1CCOc2ccccc2C1` has a cytotoxicity at 70.5 h of 0.856%.
For `Cc1ccc(C(C(=O)N2CCN(C(=O)c3ccc[nH]3)CC2)N(C)C)cc1` (centres undefined), the cytotoxicity at 70.5 h was -3.84%.
Work on `Cc1nccn1C1(C(=O)O)CCN(Cc2ccc3occc3c2)CC1` yielded a cytotoxicity at 70.5 h of -7.56%.
Work on `CCc1csc(CNCC(=O)Nc2ccc(Cl)c(C)c2)n1` yielded a cytotoxicity at 70.5 h of -6.59%.
With `C=C(C)COc1cccc(CNC(CC)c2ccnn2C)c1` (centres undefined) the cytotoxicity at 70.5 h was 1.1%.
Compound `CCC[C@H]1CN(Cc2ccc(N(C)C)nc2)C[C@@H]1NC(=O)CCOC` has a cytotoxicity at 70.5 h of -10.3%.
For `Cn1c(N2CCOCC2)nc2cc(C(=O)NCC(F)(F)F)ccc21`, the cytotoxicity at 70.5 h was -9.13%.
`CCc1ccccc1OC1CN(C(=O)c2sccc2N)C1` gave a cytotoxicity at 70.5 h of -3.46%.
With `O=C(O)c1cc(-c2ccncc2F)cc(S(=O)(=O)N2CCCCCC2)c1` the cytotoxicity at 70.5 h was -23.6%.
With `CC(C)Oc1cccc(F)c1C(C(=O)O)N1CCCN(C)CC1` (centres undefined) the cytotoxicity at 70.5 h was 26.8%.
In the case of `COCC1CCCCN1Cc1nc(-c2ccoc2)oc1C` (centres undefined), the cytotoxicity at 70.5 h is reported as -1.54%.
`CN(C)Cc1cc(-c2nccn2CCc2cccnc2)ccc1O` gave a cytotoxicity at 70.5 h of -5.02%.
In the case of `Cc1ccccc1C(=O)NC[C@@H]1CCN(C(=O)C2(O)CCCC2)C[C@H]1O`, the cytotoxicity at 70.5 h is reported as -4.64%.
Compound `CN(Cc1cc2cc(F)ccc2[nH]1)c1cc(C2CCCNC2)ncn1` (centres undefined) has a cytotoxicity at 70.5 h of -0.169%.
`Cc1ncsc1C(=O)N1CCCC(c2nccn2Cc2cscn2)C1` (centres undefined) gave a cytotoxicity at 70.5 h of -5.99%.
`CC1CCCCN1CCN(C)C(=O)c1cc(CN2CCC(O)CC2)on1` (centres undefined) gave a cytotoxicity at 70.5 h of -0.898%.
In the case of `Cc1cccc(C(C(=O)NCCn2cccc2)N(C)C)c1` (centres undefined), the cytotoxicity at 70.5 h is reported as -12.1%.
Compound `CSc1ccccc1C(=O)C1CCCN(Cc2cc(C(C)C)[nH]n2)C1` (centres undefined) has a cytotoxicity at 70.5 h of -6.68%.
With `OC[C@H]1CCN(Cc2ccc3ccccc3n2)C[C@@H]1O` the cytotoxicity at 70.5 h was -4.84%.
`CNS(=O)(=O)c1ccc(CN2CCN(Cc3ncccc3C)CC2)cc1` showed a cytotoxicity at 70.5 h of -15.3%.
Compound `O=C(CCc1nc(Cl)n[nH]1)N1CCC2(CCCNC2=O)C1` (centres undefined) has a cytotoxicity at 70.5 h of 4.11%.
For `Cc1cc(CN2CCCC2)cc(Oc2nc(C)cnc2C)c1`, the cytotoxicity at 70.5 h was -5.62%.
`CN1CCC2(CCN(S(=O)(=O)c3ccc(-c4cnco4)s3)CC2)C1` gave a cytotoxicity at 70.5 h of -8.53%.
Compound `COc1cc2[nH]c(=O)c(CN3CCCC(CO)C3)cc2c(OC)c1OC` (centres undefined) has a cytotoxicity at 70.5 h of -13.1%.
`CCc1cnc(N)nc1N1CCCC2(CCOCC2)C1` showed a cytotoxicity at 70.5 h of -3.13%.
`Cc1nonc1N1CCN(Cc2nc(CC3CC3)no2)CC1` showed a cytotoxicity at 70.5 h of -2.56%.
With `CCOc1ccc2[nH]c(=O)c(CN3CCC(n4cnnc4)CC3)cc2c1` the cytotoxicity at 70.5 h was -4.91%.
With `CC(C)c1cc(C2CCCN2Cc2nc(-c3ccco3)no2)no1` (centres undefined) the cytotoxicity at 70.5 h was -2.57%.
Work on `CCc1c(C)sc2ncnc(N3CC[C@@H](N4CCC(O)CC4)[C@H](O)C3)c12` yielded a cytotoxicity at 70.5 h of -10.6%.
`CC(=O)NCc1nc(CC(C)C)nn1-c1cccc(C)c1` showed a cytotoxicity at 70.5 h of -2.35%.
For `COCc1noc(Cn2c(=O)[nH]c3ccccc32)n1`, the cytotoxicity at 70.5 h was -10.2%.
Compound `CO[C@H]1CN(C(=O)c2cc3ccccc3[nH]2)CC[C@H]1N` has a cytotoxicity at 70.5 h of 18.2%.
With `CC(C)CN1CC2(CCN(C(=O)C3CSC(C)(C)C(=O)N3)CC2)CC1=O` (centres undefined) the cytotoxicity at 70.5 h was -1.86%.
Work on `CC(=O)N1CCN(C(=O)c2cc(C(C)C)no2)[C@H]2CS(=O)(=O)C[C@H]21` yielded a cytotoxicity at 70.5 h of -3.64%.
Work on `CSc1ncc(C(=O)N2CCC(O)(CN3CCOCC3)C(C)(C)C2)cn1` (centres undefined) yielded a cytotoxicity at 70.5 h of -0.923%.
For `CCc1ncc(C(=O)N2CCC(O)(CN3CCOCC3)C(C)(C)C2)cn1` (centres undefined), the cytotoxicity at 70.5 h was -0.715%.
Work on `CCCc1nc(C(=O)N2CCN(C(=O)c3ccc(OC)cc3)CC2)cs1` yielded a cytotoxicity at 70.5 h of -5.88%.
Compound `O=C(c1ccco1)N1CCN(Cc2nc(C3CC3)no2)CC1` has a cytotoxicity at 70.5 h of -5.91%.
`CN(CC(=O)N1CCC(OCc2cccnc2)CC1)c1ccccc1` gave a cytotoxicity at 70.5 h of -17.1%.
In the case of `COc1ccccc1N1CCN(C(=O)CCCS(N)(=O)=O)C(C)C1` (centres undefined), the cytotoxicity at 70.5 h is reported as -5.3%.
Compound `COc1ccc(N2CCC(N3CCOC(C(F)(F)F)C3)CC2)cc1` (centres undefined) has a cytotoxicity at 70.5 h of -7.02%.
With `O=S(=O)(N1CCOCC1)N1CCCCC1CCn1cccn1` (centres undefined) the cytotoxicity at 70.5 h was 3.71%.
For `CC(C)[C@@H]1CN(C(=O)CN(C)Cc2ccc(F)cc2)C[C@H]1C(=O)O`, the cytotoxicity at 70.5 h was -1.04%.
`Cc1nn(C)c(C)c1CN(Cc1cccn1-c1cccnc1)C(C)C` showed a cytotoxicity at 70.5 h of 11.8%.
In the case of `COc1ccc(Cn2c(Cc3c(C)n[nH]c3C)n[nH]c2=O)cc1`, the cytotoxicity at 70.5 h is reported as -12.9%.
Compound `CN(CCc1noc(C2CC2)n1)C(=O)CN1C(=O)COc2ccccc21` has a cytotoxicity at 70.5 h of -4.64%.
`CCCc1nc(C)c(CN2CC3(CCOC3)CCC2=O)s1` (centres undefined) showed a cytotoxicity at 70.5 h of -8.32%.
For `O=C(O)c1cccnc1CN(Cc1ccsc1)C1CC1`, the cytotoxicity at 70.5 h was -6.7%.
